CN(C)CCC=C1c2ccccc2CCc2ccccc21.Cl
Settings | solubility (mole fraction)
in 2-butanone, 283.23 K | 0.00254
in 2-butanone, 288.16 K | 0.00275
in 2-butanone, 293.2 K | 0.00304
in 2-butanone, 298.15 K | 0.00338
in 2-butanone, 303.16 K | 0.00375
in 2-butanone, 308.2 K | 0.00415
in 2-butanone, 313.15 K | 0.00462
in 2-butanone, 318.67 K | 0.00518
in 2-butanone, 323.35 K | 0.00584
in DMF, 283.86 K | 0.03
in DMF, 288.15 K | 0.032
in DMF, 293.05 K | 0.0353
in DMF, 298.04 K | 0.0387
in DMF, 303.05 K | 0.0425
in DMF, 308.17 K | 0.047
in DMF, 313.3 K | 0.0519
in DMF, 318.16 K | 0.0571
in DMF, 323 K | 0.0633
in THF, 283.09 K | 0.000628
in THF, 288.07 K | 0.000755
in THF, 293.82 K | 0.000884
in THF, 298.23 K | 0.00101
in THF, 303.1 K | 0.00116
in THF, 309.04 K | 0.00135
in THF, 313.13 K | 0.00152
in THF, 317.96 K | 0.00174
in THF, 323.16 K | 0.00196
in acetone, 283.17 K | 0.00226
in acetone, 288.13 K | 0.00252
in acetone, 293.2 K | 0.00282
in acetone, 298.07 K | 0.00316
in acetone, 303.21 K | 0.00354
in acetone, 308.19 K | 0.00398
in acetone, 313.2 K | 0.00448
in acetone, 318.2 K | 0.00503
in acetone, 323.1 K | 0.00565
in acetonitrile, 283.19 K | 0.00773
in acetonitrile, 288.13 K | 0.0089
in acetonitrile, 293.2 K | 0.0102
in acetonitrile, 298.19 K | 0.0118
in acetonitrile, 303.16 K | 0.0136
in acetonitrile, 308.13 K | 0.0157
in acetonitrile, 313.17 K | 0.0183
in acetonitrile, 318.13 K | 0.0212
in acetonitrile, 323.17 K | 0.0249
in cyclohexanone, 282.93 K | 0.00512
in cyclohexanone, 288.07 K | 0.00585
in cyclohexanone, 293.11 K | 0.0066
in cyclohexanone, 298.43 K | 0.00743
in cyclohexanone, 303.09 K | 0.00829
in cyclohexanone, 308.26 K | 0.00952
in cyclohexanone, 313.27 K | 0.011
in cyclohexanone, 319.7 K | 0.0128
in cyclohexanone, 323.1 K | 0.0144
in isobutanol, 283.25 K | 0.0281
in isopentanol, 283.17 K | 0.0122
in isopentanol, 288.19 K | 0.0159
in isopentanol, 293.17 K | 0.0202
in isopentanol, 298.2 K | 0.0256
in isopentanol, 303.23 K | 0.0326
in isopentanol, 308.17 K | 0.0416
in isopentanol, 313.15 K | 0.0532
in isopentanol, 318.2 K | 0.0671
in isopentanol, 323.17 K | 0.0827
in isopropanol, 283.16 K | 0.00585
in isopropanol, 288.35 K | 0.00786
in isopropanol, 293.16 K | 0.0102
in isopropanol, 298.16 K | 0.0133
in isopropanol, 303.05 K | 0.0177
in isopropanol, 308.06 K | 0.0239
in isopropanol, 313.54 K | 0.034
in isopropanol, 318.16 K | 0.0456
in isopropanol, 323.3 K | 0.0592
in n-butanol, 283.1 K | 0.0203
in n-butanol, 288.2 K | 0.0261
in n-butanol, 293.13 K | 0.0333
in n-butanol, 298.15 K | 0.042
in n-butanol, 303.4 K | 0.0537
in n-butanol, 308.2 K | 0.0662
in n-butanol, 313.15 K | 0.0803
in n-butanol, 318.16 K | 0.0953
in n-butanol, 323.23 K | 0.112
in n-pentanol, 288.23 K | 0.0366
in n-pentanol, 293.21 K | 0.0456
in n-pentanol, 298.07 K | 0.0562
in n-pentanol, 303.07 K | 0.0701
in n-pentanol, 308.2 K | 0.0855
in n-pentanol, 313.16 K | 0.1
in n-pentanol, 318.07 K | 0.117
in n-pentanol, 323.07 K | 0.133
in n-propanol, 283.17 K | 0.0266
in n-propanol, 288.17 K | 0.0349
in n-propanol, 293.16 K | 0.0442
in n-propanol, 298.1 K | 0.0557
in n-propanol, 303.07 K | 0.0691
in n-propanol, 308.24 K | 0.0851
in n-propanol, 313.16 K | 0.1
in n-propanol, 318.07 K | 0.116
in n-propanol, 323.2 K | 0.13
in sec-butanol, 283.2 K | 0.00725
in sec-butanol, 288.2 K | 0.00934
in sec-butanol, 293.21 K | 0.0121
in sec-butanol, 298.1 K | 0.0156
in sec-butanol, 303.17 K | 0.0207
in sec-butanol, 308.13 K | 0.0278
in sec-butanol, 313.2 K | 0.0367
in sec-butanol, 318.17 K | 0.0483
in sec-butanol, 323.2 K | 0.0637
